{"source": "patent US12269859B2", "about": "“Synthetic immune receptors and methods of use thereof” (Angeles Therapeutics, Inc., priority 2016, dated 2025)", "key": {"RAJI cells [1]": {"test_system": "RAJI cells", "test": "GLuc cytotoxicity assay, RAJI-GLuc cells", "format": "cell-based, human", "method": "(D) Assay for Cytotoxic Activity in vitro and in vivo: The uninfected T cells or those expressing a control vector or SIR are cocultured with the target cell lines expressing a non-secretory form of a luciferase (such as GLuc, NLuc, Turboluc 16 etc.) for 4-96 hours and induction of cell lysis examined by measuring the luciferase activity as described in PCT/US17/52344. Alternate methods for measurement of cytotoxic activity (e.g., ^51Cr release assay or LDH release assay) can be used as well. The activity of T cells expressing a SIR can be also assayed in vivo using appropriate xenograft models in immunodeficient mice.\nCell death assay. To measure cell death, a novel assay based on ectopic cytosolic expression of Gluc or NLuc was utilized as described in PCT/US17/52344 “A Non-Radioactive Cytotoxicity Assay”. The method involves expression of a reporter in a target cells in a manner so that it is preferentially retained within the healthy cells but is either released from dead and dying cells or whose activity can be preferentially measured in dead and dying cells. The preferred reporter for this assay are 1) non-secreted forms of luciferases from the copepods, such as Gaussia princeps, Pleuromamma abdominalis, Metridia pacifica, Metridia curticauda, Metridia asymmetrica, Metridia okhotensis, Metridia longa, Lucicutia ovaliformis, Heterorhabdus tanneri, and Pleuromamma scutullata 2) engineered luciferase reporters from deep sea shrimp, such as NanoLuc. The sequence of several such reporter vectors is provided in SEQ ID NO: 881 to SEQ ID NO: 887. The above vectors were used to generate retrovirus and lentiviruses which in turn were used to generate polyclonal population of several target cell lines stably expressing GLuc, NLuc, TurboLuc or MLuc7 following selection with appropriate antibiotics. Unless indicated otherwise, the target cells stably expressing the different luciferases (GLuc, Nluc, MLuc7 or TurboLuc16) were plated in triplicate in a 384 well plate in the media used for growing the target cells. Target cells which grow in suspension were generally plated at a concentration of 2-3×10^4 per well, while target cells which grow as adherent monolayers were plated at a concentration of 1-2×10^4 per well. Unless indicated otherwise, the target cells were cocultured with the genetically modified T cells (i.e. those expressing SIR or CAR) at an Effector:Target (E:T) ratio varying from 1:1 to 10:1 for 4 hours to 96 hours. In the case target cells grow as adherent cells (e.g., HeLa cells), they were allowed to attach to the bottom of the wells overnight before the T cells were added. T cells mediated induction of lysis of target cells was assayed by increase of luciferase activity as measured by BioTek synergy plate reader by directly injecting 0.5×CTZ assay buffer containing native coeloentrazine (Nanaolight).\nCTZ assay. A 100× stock solution of native coelenterazine (CTZ; Nanolight, cat #303) was made by dissolving 1 mg of lyophilized CT powder in 1.1 ml of 100% Methanol supplemented with 30 μl of 6N HCl to avoid oxidation of CTZ with time. To make CTZ assay buffer, the 100× stock solution of CTZ was diluted to 0.5× concentration in PBS. Unless indicated otherwise, a total volume of 15 μl of the CTZ assay buffer (as prepared above) was added to each well of a 384-well white plate (Greiner, 384 well white plate cat #781075) containing cells expressing the non-secretory form of the luciferase in approximately 50-60 μl volume of medium and plates were read for luminescence in endpoint mode using BioTek synergyH4 plate reader. For 96 well plates, cells were plated in 200 μl of media and approximately 50 μl of 0.5×CTZ assay buffer was added. Unless indicated otherwise, the 0.5×CTZ assay buffer was used for assaying the activity of GLuc, TurboLuc16, and MLuc7. The CTZ assay buffer (diluted to 0.125× concentration) was also used for measurement of NLuc activity in some experiments (see below)."}, "RAJI cells [2]": {"test_system": "RAJI cells", "test": "RAJI xenograft model of lymphoma in NSG mice (survival)", "format": "in vivo", "method": "In vivo efficacy of SIR targeting CD19. […] SIR constructs and Gluc-PAC-G07 control construct encoding non-secretory form of Guassia Luciferase. Approximately half the cells were selected with puromycin while the other half was expanded without puromycin selection. NSG mice (Jackson Lab) were sub-lethally irradiated at a dose of 175 cGy. Approximately 24 hours post irradiation (day 2), mice were injected with 2.5×10^4 RAJI cells via tail-vein. […] Control mice (n=5) received no T cells or uninfected T cells. Mice were given human IL2 (400 IU intraperitoneally) on alternate days till the death of all mice in control group.\nApproximately half the cells were selected with puromycin while the other half was expanded without puromycin selection. NSG mice (Jackson Lab) were sub-lethally irradiated at a dose of 175 cGy. Approximately 24 hours post irradiation (day 2), mice were injected with 2.5×10^4 RAJI cells via tail-vein. […] Control mice (n=5) received no T cells or uninfected T cells. Mice were given human IL2 (400 IU intraperitoneally) on alternate days till the death of all mice in control group.\nSIR construct. NSG mice (Jackson Lab) were sub-lethally irradiated at a dose of 175 cGy. Approximately 24 hours post irradiation (day 2), mice were injected with 2.5×10^4 RAJI cells via tail-vein. […] SIR encoding lentivirus. Control mice (n=5) were injected with 5 million uninfected T cells or given no T cells.\nSIR constructs. […] SIR were included as controls. NSG mice (n=5) were sub-lethally irradiated at a dose of 175 cGy. 24 hours post irradiation (day 2), mice were injected with 2.5×10^4 RAJI cells via tail-vein. […] Mice were given human IL2 (400 IU i.p.) on alternate days till the death of all mice in control group.\nHuman peripheral blood T cells isolated using CD3 magnetic beads were infected with lentiviruses expressing the indicated SIR constructs targeting Lym1 and Lym2. On day 1, the NSG mice were sub-lethally irradiated at a dose of 175 cGy. 24 hours post irradiation (day 2), mice were injected with 25×10^3 Raji cells intravenously. On day 3, the mice were treated intravenously with 10 million indicated CAR-T cells. Beginning on day 4, mice were injected with human IL-2 i.p. at a dose of 400 IU/mice every alternate day after the injection CAR-T cells till the death of all mice in control group."}, "[3]": {"conditions": "FIG. 17: 2.5×10^4 RAJI cells, 5 million T cells on day 3, human IL2 (400 IU i.p.) on alternate days"}}, "note": "Entries after “also recorded” stand apart in the source; their conditions may differ.", "data": [{"substance": "CD8SP-CD19Bu12-vL-V5-[TCRb-S57C-opt1]-F-P2A-SP-CD19Bu12-vH-Myc-[TCRa-T48C-opt1]-F-F2A-PAC [SEQ ID NO:1021]", "values": [{"measurement": "lysis of target cells by increase of GLuc activity (in words)", "setting": "RAJI cells [1]; E:T 1:1, 96 hours", "value": "increase in GLuc activity"}, {"measurement": "lysis of target cells by increase of GLuc activity (in words)", "setting": "RAJI cells [1]; E:T 10:1, 4 hours", "value": "increase in GLuc activity"}, {"measurement": "mean Gluc values", "setting": "RAJI cells [1]; E:T 10:1, 4 hours", "value": 2547}, {"measurement": "Median Survival", "setting": "RAJI cells [2]; [3]", "value": 51, "unit": "days"}]}, {"substance": "CD8SP-FMC63-vL-V5-[TCRb-S57C-opt1]-F-P2A-SP-FMC63-vH-Myc-[TCRa-T48C-opt1]-F-F2A-PAC [SEQ ID NO:900]", "values": [{"measurement": "lysis of target cells by increase of GLuc activity (in words)", "setting": "RAJI cells [1]; E:T 1:1, 96 hours", "value": "increase in GLuc activity"}, {"measurement": "lysis of target cells by increase of GLuc activity (in words)", "setting": "RAJI cells [1]; E:T 10:1, 4 hours", "value": "increase in GLuc activity; also recorded: induced effective target cell lysis; also recorded: Modest cytotoxicity"}, {"measurement": "mean Gluc values", "setting": "RAJI cells [1]; E:T 10:1, 4 hours", "value": 3042}, {"measurement": "Median Survival", "setting": "RAJI cells [2]; [3]", "value": 28.0, "unit": "days"}, {"measurement": "Median Survival", "setting": "RAJI cells [2]; NSG mice, 2.5×10^4 RAJI cells via tail-vein, 5 million T cells on day 3, Table 13", "value": 27, "unit": "days"}, {"measurement": "survival (in words)", "setting": "RAJI cells [2]; experiment of Table 13", "value": "conferred survival advantage"}]}]}
